Measurements: patent US6844190B2, “St-B17 serotonin receptor” (The United States of America as represented by the …, priority 1992, dated 2005)
Where two headings read alike, the source gives them in different places.

Legend:
[1] = biological target: T1, St-B17 serotonin receptor (Rattus norvegicus, UniProt P31388, L57V); experiment: [125I]-LSD competition binding, Cos-7 cell membranes expressing St-B17; set-up: expressed in transfected cells; host or cells: Cos-7 cells, transient transfection, crude membranes; details: for affinity for St-B17 (in words): qualitative statement
T1 sequence (P31388 with tags, fused parts or gaps L57V): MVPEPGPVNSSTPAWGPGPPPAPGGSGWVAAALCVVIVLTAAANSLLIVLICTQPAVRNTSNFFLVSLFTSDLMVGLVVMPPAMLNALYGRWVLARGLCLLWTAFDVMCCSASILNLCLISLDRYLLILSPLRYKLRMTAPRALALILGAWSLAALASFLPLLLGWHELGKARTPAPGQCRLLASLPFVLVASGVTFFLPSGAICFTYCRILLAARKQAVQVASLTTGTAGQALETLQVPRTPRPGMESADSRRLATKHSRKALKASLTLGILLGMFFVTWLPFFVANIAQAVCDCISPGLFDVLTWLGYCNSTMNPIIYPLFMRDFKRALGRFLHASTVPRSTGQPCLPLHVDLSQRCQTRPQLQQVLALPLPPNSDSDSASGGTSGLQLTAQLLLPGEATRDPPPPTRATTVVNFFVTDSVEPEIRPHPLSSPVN
Procedure: (§1) This experiment was performed on Cos-7 cell membranes expressing the St-B17 serotonin receptor.

[2] = biological target: T2, St-B17 stably expressed in HEK-293 cells (Rattus norvegicus, UniProt P31388, L57V); experiment: cAMP accumulation in intact HEK-293 cells stably expressing St-B17; format: cell-based
T2 construct: expressed in transfected cells
T2 sequence (P31388 with tags, fused parts or gaps L57V): as above
Procedure: Human Embryonic Kidney cells (HEK 293 available from the ATCC) were stably co-transfected in 150mm dishes by the CaPO4 technique with 30 μg of pSRα-B17 and 3 μg of pMam-neo (INVITROGEN). These HEK 293 cells were then subjected to selection with 600 μg/ml genetecin (G418) (GIBCO). The resistant colonies were collected and screened for receptor expression by [^125I]-LSD binding as described in Example 6.
Intracellular cAMP levels were determined after a 5 minute incubation of intact cells with various test compounds at 37° C. in the presence of the cAMP phosphodiesterase inhibitor RO-20-1724, using a modification of a previously described cAMP assay (Monsma, F. J., Jr., Barton, A. C., and Sibley, D. R. (1990) J. Neurochemistry 54, 1200-1207) wherein the adrenal cAMP binding protein was replaced with 0.8 mg/ml protein kinase A in water.

[3] = biological target: T3, St-B17 serotonin receptor (Rattus norvegicus, UniProt P31388); experiment: [125I]-LSD competition binding, Cos-7 cell membranes expressing St-B17; details: read-out: Ki vs. [125I]-LSD, Mean ± SEM
T3 construct: expressed in transfected cells; host or cells: Cos-7 cells, transient transfection, crude membranes
T3 sequence (P31388 with tags, fused parts or gaps L57V): as above
Procedure: as §1

[4] = biological target: T1, St-B17 serotonin receptor; experiment: [3H]-5-HT competition binding, Cos-7 cell membranes expressing St-B17; set-up: expressed in transfected cells; host or cells: Cos-7 cells, transient transfection, crude membranes
[5] = biological target: T1, St-B17 serotonin receptor; experiment: Saturation analysis of [3H]-5-HT binding in transfected Cos-7 cells; set-up: expressed in transfected cells; host or cells: Cos-7 cells, transient transfection, crude membranes
Text: The binding of [^3H]-5-HT was similarly not affected by the addition of guanine nucleotides.

[6] = biological target: T1, St-B17 serotonin receptor
[7] = tested on: adenylyl cyclase activity in the NCB-20 neuroblastoma cell line; details: NCB-20 cells, literature; read-out: EC50, activation of adenylyl cyclase; cited from earlier work
[8] = screened compounds, radioligand not restated, read-out: inhibition constant (Ki)
[9] = Ki vs. [125I]-LSD, Mean ± SEM, 0.5 nM [125I]-LSD, Cos-7 membranes, n=3, Cheng-Prussoff from IC50
[10] = 10 μM final concentration, FIG. 5
[11] = 0.5 nM [125I]-LSD, Cos-7 membranes, n=3, Cheng-Prussoff from IC50
[12] = read-out: Ki vs. [3H]-5-HT, Mean ± SEM
[13] = inhibition constant (Ki), screened compounds, radioligand not restated
[14] = 5 nM [3H]-5-HT, Cos-7 membranes, n=3, Cheng-Prussoff from IC50, read-out: Ki vs. [3H]-5-HT, Mean ± SEM

NC[C@H](O)c1ccc(O)c(O)c1 [norepinephrine] showed a Ki [1, 8] greater than 10000 nM.

Molecule NCCc1c[nH]cn1 [histamine] has a Ki [1, 8] greater than 10000 nM.

For COc1ccc2[nH]cc(CCN)c2c1 [5-methoxytryptamine], the Ki [1, 9] was 38.9 ± 3.95 nM and the “effect on cAMP levels on their own (in words)” value (“effect on cAMP levels” for short) [2, 10] was “elicit an increase in cAMP levels”.

In the case of CN1CCN(C2=Nc3ccccc3Oc3ccc(Cl)cc32)CC1 [Loxapine], the Ki [3, 11] is reported as 64.75 ± 0.6 nM and the Ki [4, 12] is reported as 56 ± 1.5 nM.

For Clc1ccc2c(c1)C(N1CCNCC1)=Nc1ccccc1O2 [Amoxipine], the Ki [3, 11] was 30.4 ± 1.64 nM, the “effect on cAMP levels” value [2, 10] was “no significant effect on cAMP levels” and the “effect on the cAMP response elicited by 5-HT (in words)” value [2, 10] was “substantially inhibit the response elicited by 5-HT”. The “functional classification at St-B17 receptor” value [2, 10] was “antagonists”.

Molecule Nc1ccc(CCN2CCN(c3cccc(C(F)(F)F)c3)CC2)cc1 [PAPP] has a Ki [3, 11] of 806 ± 75.2 nM.

FC(F)(F)c1cccc(N2CCNCC2)c1 [TFMPP] gave a Ki [1, 9] of 482 ± 37.2 nM.

CNCCc1c[nH]c2ccc(O)cc12 [5-Hydroxy-N,ω-methyltryptamine] gave a Ki [3, 11] of 58 ± 8.32 nM.

Work on Clc1cccc(N2CCNCC2)c1 [mCPP] yielded a Ki [3, 11] of 2310 ± 343 nM.

In the case of CN1C2CCCC1CC(NC(=O)c1nn(C)c3ccccc13)C2 (centres unmarked) [BRL 43694A], the Ki [1, 8] is reported as greater than 10000 nM.

CC(C)C[C@H]1C(=O)N2CCC[C@H]2[C@]2(O)O[C@](NC(=O)[C@@H]3C[C@@H]4c5cccc6[nH]cc(c56)C[C@H]4N(C)C3)(C(C)C)C(=O)N12 [Dihydroergocryptine] gave a Ki [1, 9] of 161 ± 13.2 nM.

COc1cc(N)c(Cl)cc1C(=O)NC1CN2CCC1CC2 (centres unmarked) [zacopride] gave a Ki [1, 8] greater than 10000 nM.

With COc1cc(N)c(Cl)cc1C(=O)NC1CCN2CCCC1C2 (centres unmarked) [BRL 24924] the Ki [1, 8] was greater than 10000 nM.

COc1ccccc1N1CCN(CCCCN2C(=O)c3ccccc3C2=O)CC1 [NAN-190] gave a Ki [1, 13] greater than 10000 nM.

With CN1CCN(c2nc3cc(C(F)(F)F)ccc3n3cccc23)CC1.O=C(O)/C=C\C(=O)O.O=C(O)/C=C\C(=O)O [CGS 12066B] the Ki [3, 11] was 738 ± 66.6 nM and the “affinity for St-B17 (in words)” value [1] was “relatively low affinity”.

Work on c1ccc2c(c1)OCC(C1=NCCN1)O2 (centres unmarked) [idazoxan] yielded a Ki [1, 8] greater than 10000 nM.

Work on CC[C@@H](CO)NC(=O)[C@@H]1C=C2c3cccc4c3c(cn4C)C[C@H]2N(C)C1 [MethyscrGide] yielded a Ki [3, 11] of 372 ± 72.7 nM.

COc1ccc2[nH]cc(CCNC(C)=O)c2c1 [melatonin] showed a Ki [1, 8] greater than 10000 nM.

Molecule Cc1nc2sccn2c(=O)c1CCN1CCC(=C(c2ccc(F)cc2)c2ccc(F)cc2)CC1 [Ritanerin] has a Ki [3, 11] of 44.1 ± 4.35 nM and a Ki [4, 14] of 16 ± 2 nM.

Molecule Fc1ccc([C@@H]2CCNC[C@H]2COc2ccc3c(c2)OCO3)cc1 [paroxetine] has a Ki [1, 13] greater than 10000 nM.

Work on COc1ccccc1N1CCNCC1 [2-MPP] yielded a Ki [3, 11] of 3050 ± 321 nM.

Molecule CN(C)C/C=C(/c1ccc(Br)cc1)c1cccnc1 [zimelidine] has a Ki [1, 8] greater than 10000 nM.

With NCCc1ccc(O)c(O)c1 [dopamine] the Ki [1, 8] was greater than 10000 nM.

In the case of NCCc1c[nH]c2ccc(O)cc12 [[^3H]-5-HT], the Bmax ([5]; [3H]-5-HT saturation binding) is reported as 1-3 pMoles/mg protein, the Kd ([5]; [3H]-5-HT saturation binding, n=3) is reported as 37 nM and the “effect of guanine nucleotides on binding” value ([5]; addition of guanine nucleotides) is reported as “not affected”.

For CCN(CC)C(=O)[C@@H]1C=C2c3cccc4[nH]c(I)c(c34)C[C@H]2N(C)C1 [[^125I]-LSD, lysergic acid diethylamide], the “affinity for St-B17 (in words)” value [1] was “relatively high affinity”, the Kd ([6]; KD, representative experiment (FIG. 1, scatchard analysis), single representative experiment) was 1.5 nM and the Kd ([6]; dissociation constant (KD), [125I]-LSD saturation binding, Cos-7 membranes, mean n=3) was 1.26 nM. For the same molecule, the “maximum binding (Bmax)” value ([6]; range over experiments) was 2-5 pMoles/mg protein and the “Bmax, representative experiment (FIG. 1)” value ([6]; single representative experiment) was 3.4 pMoles mg protein^−1.

For CN1C[C@H](CNC(=O)OCc2ccccc2)C[C@@H]2c3cccc4c3c(cn4C)C[C@H]21 [Metergoline], the Ki [3, 11] was 30 ± 0.38 nM and the Ki [4, 12] was 61 ± 23 nM.

Molecule O=C(CCCN1CCC2(CC1)C(=O)NCN2c1ccccc1)c1ccc(F)cc1 [spiroperidol] has a Ki [1, 8] greater than 10000 nM.

With CCNC(C)Cc1cccc(C(F)(F)F)c1 (centres unmarked) [fenfluramine] the Ki [1, 13] was greater than 10000 nM.

Work on CN1C[C@@H](NS(=O)(=O)N(C)C)C[C@@H]2c3cccc4c3c(cn4C)C[C@H]21 [Mesulergine] yielded a Ki [3, 11] of 1720 ± 248 nM.

Work on CN(C)CCC=C1c2ccccc2CCc2ccccc21 [Amitriptyline] yielded a Ki [3, 11] of 69.6 ± 7.21 nM and a Ki [4, 12] of 82 ± 6 nM.

For CN1C[C@H](C(=O)N[C@]2(C)O[C@@]3(O)[C@@H]4CCCN4C(=O)[C@H](Cc4ccccc4)N3C2=O)C[C@@H]2c3cccc4[nH]cc(c34)C[C@H]21 [Dihydroergotamine], the Ki [1, 9] was 13.1 ± 0.9 nM, the “effect on cAMP levels” value [2, 10] was “stimulate cAMP accumulation” and the “functional classification at St-B17 receptor” value [2, 10] was “partial agonists”. It also gave a Ki [4] of 5.4 ± 5.4 nM.

CCN(CC)C(=O)[C@@H]1C=C2c3cccc4[nH]c(Br)c(c34)C[C@H]2N(C)C1 [2-Br-LSD] showed a Ki [3, 11] of 17.1 ± 1.11 nM.

For CN1[C@@H]2CC[C@H]1C[C@@H](OC(=O)c1c[nH]c3ccccc13)C2 [ICS 205,930], the “affinity for St-B17 (in words)” value [1] was “virtually no affinity”.

For CCCN(CCC)C1CCc2cccc(O)c2C1 (centres unmarked) [8-OH-DPAT], the “affinity for St-B17 (in words)” value [1] was “relatively low affinity”.

In the case of CN1C[C@H](CC#N)C[C@@H]2c3cccc4[nH]c(Cl)c(c34)C[C@H]21 [Lergotrile], the Ki [3] is reported as 36.5 ± 1.04 nM.

Molecule CC(C)NCC(O)COc1cccc2[nH]ccc12 (centres unmarked) [pindolol] has a Ki [1, 8] greater than 10000 nM.

Molecule NCC(O)c1ccc(O)cc1 (centres unmarked) [octopamine] has a Ki [1, 8] greater than 10000 nM.

With NCCc1c[nH]c2ccc(O)cc12 [5-HT, 5-hydroxytryptamine] the Ki [3, 11] was 151 ± 12.8 nM, the “influence of guanine nucleotide analogue GppNHp on affinity” value ([1]; addition of GppNHp) was “not influenced” and the “Hill coefficient for the competition curve” value ([1]; vs. [125I]-LSD) was “not significantly different from unity”. For the same molecule, the EC50 [7] was 300 nM and the EC50 [2] was 145 nM.

For CNC[C@H](O)c1ccc(O)c(O)c1 [epinephrine], the Ki [1, 8] was greater than 10000 nM.

Molecule CNCCC=C1c2ccccc2CCc2ccccc21 [Nortriptyline] has a Ki [3, 11] of 147 ± 2.61 nM.

In the case of CN1[C@@H]2CC[C@H]1C[C@@H](OC(=O)c1cc(Cl)cc(Cl)c1)C2 [MDL 72222], the “affinity for St-B17 (in words)” value [1] is reported as “virtually no affinity” and the Ki [1, 8] is reported as greater than 10000 nM.

In the case of NCCc1c[nH]c2ccc(C(N)=O)cc12 [5-Carboxamidotryptamine], the Ki [3, 11] is reported as 774 ± 84.4 nM, the “effect on cAMP levels” value [2, 10] is reported as “elicit an increase in cAMP levels” and the Ki [4, 14] is reported as 253 ± 20 nM.

With CCCN1C[C@H](CSC)C[C@@H]2c3cccc4[nH]cc(c34)C[C@H]21 [Pergolide] the Ki [3, 11] was 29.9 ± 7.31 nM and the “affinity for St-B17 (in words)” value [1] was “relatively high affinity”.

Work on N,ω-Methyltryptamine yielded a Ki [3, 11] of 342 ± 32.2 nM.

Work on c1ccc2c(N3CCNCC3)cccc2c1 [1(1-naphthyl)piperazine] yielded a Ki [1, 9] of 104 ± 13.8 nM.

In the case of NCCc1c[nH]c2ccc(OCc3ccccc3)cc12 [5-Benzyloxytryptamine], the Ki [1, 9] is reported as 110 ± 17.9 nM.

COc1ccc2[nH]cc(CCN(C)C)c2c1 [N,N-Dimethyl-5-methoxytryptamine] gave a Ki [1, 9] of 79.8 ± 3.86 nM.

NCCc1ccc(O)cc1 [tyramine] showed a Ki [1, 8] greater than 10000 nM.

In the case of O=C(c1ccc(F)cc1)C1CCN(CCn2c(=O)[nH]c3ccccc3c2=O)CC1 [ketanserin], the “affinity for St-B17 (in words)” value [1] is reported as “relatively low affinity” and the Ki [1, 8] is reported as greater than 10000 nM.

With CN(C)CCCC1(c2ccc(F)cc2)OCc2cc(C#N)ccc21 (centres unmarked) [citalopram] the Ki [1, 13] was greater than 10000 nM.
